# Measured values as given in patent US8883758B2, “3,5-disubstituted and 3,5,7-trisubstituted-3H-oxazolo and 3H-thiazolo[4,5-d]pyrimidin-2-one compounds and prodrugs thereof” (Anadys Pharmaceuticals, Inc., priority 2004, dated 2014).
# Test system: human PBMCs
# Experiment: IFN-α induction from peripheral blood mononuclear cells (PBMC), IFN-α ELISA
# Format: cell-based
# Settings: for Emax: Homo sapiens, PBMC, percentage of the level of IFN-α induction by either 32 or 100 μM isatoribine, 24 hours compound exposure, read-out: IFN-α induction from PBMCs relative to isatoribine; for Difference in amount of IFN-α produced compared with isatoribine: 100 μM test agent
# Description: Peripheral blood mononuclear cells (PBMCs) are prepared by standard methods from human blood and are primarily comprised of monocytes, NK cells, circulating dendritic cells and both T and B cells. Briefly, they are purified by density gradient centrifugation from a buffy coat, which is the component of whole blood that contains leukocytes and platelets. In turn, buffy coats are prepared by centrifuging whole blood and isolating the thin cream colored layer between the upper plasma layer and the lower red blood cell portion of the separated mixture.
# Freshly collected donor buffy coats were obtained from the San Diego Blood Bank. PBMCs were isolated from the buffy coats using histopaque-1077 gradient (Sigma), essentially as described in the manufacturer's protocol. Buffy coats were transferred into 50 ml centrifuge tubes and PBS added to a total volume of 35 ml. Next 10 ml histopaque-1077 was underlayed at the bottom of each tube, which were then centrifuged at 259×g for 30 minutes at room temperature without brake in a 5804 R centrifuge (Eppendorf). The top PBS level from each tube was removed and discarded and the buffy coat layer transferred to a fresh tube. The total volume was made up to 50 ml with PBS and the tubes were then centrifuged for 10 minutes at 259×g at room temperature. The cells were washed an additional 3 times with PBS in this manner.
# The cell (PBMC) pellet was then resuspended in 30-40 ml complete (RPMI 1640) media. PBMCs were seeded at either 2.5 or 7.5×10^6 cells/ml complete media (1× and 3× seedings, respectively) and allowed to rest overnight before compound exposure for 24 hours. The cells and media were then collected, centrifuged for 5 minutes at 735×g in a 5415 C microfuge (Eppendorf) at room temperature and the supernatant analyzed by IFN-α ELISA. […] Hereby incorporated by reference in their entireties are U.S. Pat. Nos. 5,041,426 and 4,880,784, and U.S. patent application Ser. No. 10/861,430 (U.S. Patent Application Publication No. US 2005/0070556), which disclose, inter alia, IFN-α induction of isatoribine.
# Accordingly, relative activities of the compounds of the invention are expressed as a percentage of the level of IFN-α induction by either 32 or 100 μM isatoribine.
# Human IFN-α ELISA (#KHC4012) was performed as described in Biosource protocol. However, to ensure that readings were within the linear range of detection, PBMC supernatant samples were typically diluted 1:3 (2.5×10^6 cells/ml seeding) or 1:15 (7.5×10^6 cells/ml seeding) and then analyzed together with undiluted supernatant samples. The concentration in each sample was calculated from the O.D. by reference to a standard curve.
# [1] = 1× PBMC seeding, 100 μM test compound
Compound,Emax [%],also measured
"Nc1nc2c(sc(=O)n2[C@H]2CC[C@@H](CO)O2)c(=O)[nH]1 [Compound 165, 5-Amino-3-(2′,3′-dideoxy-β-D-ribofuranosyl)-3H,6H-thiazolo[4,5-d]pyrimidine-2,7-dione]",11 to 50,–
"Nc1nc2c(sc(=O)n2[C@@H]2O[C@H](CO)[C@@H](CO)[C@H]2O)c(=O)[nH]1 [Compound 148, (3′S)-5-Amino-3-(3′-deoxy-3′-hydroxymethyl-β-D-ribofuranosyl)-3H,6H-thiazolo[4,5-d]pyrimidin-2,7-dione]",0 to 10,–
"Nc1nc2c(sc(=O)n2[C@@H]2O[C@H](CO)C[C@H]2O)c(=O)[nH]1 [Compound 122, 5-Amino-3-(3′-deoxy-β-D-ribofuranosyl)-3H,6H-thiazolo[4,5-d]pyrimidine-2,7-dione]",> 100,"IFN-α production compared with isatoribine [1]: significantly and substantially more IFN-α production; IFN-α production compared with isatoribine (3× PBMC seeding, 32 μM): dramatically and unexpectedly outperform isatoribine; Difference in amount of IFN-α produced compared with isatoribine (3× PBMC seeding): less clear-cut although visually apparent and statistically significant"
"CO[C@@H]1[C@@H](O)[C@H](n2c(=O)sc3c(=O)[nH]c(N)nc32)O[C@@H]1CO [Compound 137, 5-Amino-3-(3′-(R)-Methoxy-β-D-xylofuranosyl)-3H,6H-thiazolo[4,5-d]pyrimidin-2-one]",51 to 100,–
"CC(=O)OC[C@H]1O[C@@H](n2c(=O)sc3c(=O)[nH]c(N)nc32)[C@H](OC(C)=O)[C@H]1OC(C)=O [Compound 133, 5-Amino-3-(2′,3′,5′-tri-O-acetyl-β-D-xylofuranosyl)-3H,6H-thiazolo[4,5-d]pyrimidin-2-one]",> 100,–
"CC(=O)OC[C@H]1[C@@H](OC(C)=O)[C@H](n2c(=O)sc3c(=O)[nH]c(N)nc32)O[C@@H]1COC(C)=O [Compound 147, (3′S)-5-Amino-3-(3′-acetoxymethyl-2′,5′-di-O-acetyl-3′-deoxy-β-D-ribofuranosyl)-3H,6H-thiazolo[4,5-d]pyrimidin-2,7-dione]",> 100,–
"C[C@@]1(O)[C@@H](CO)O[C@@H](n2c(=O)sc3c(=O)[nH]c(N)nc32)[C@@H]1O [Compound 117, 5-Amino-3-(3′-C-methyl-β-D-ribofuranosyl)thiazolo[4,5-d]pyrimidine-2,7(3H,6H)-dione]",> 100,–
"C=C1[C@@H](O)[C@H](n2c(=O)sc3c(=O)[nH]c(N)nc32)O[C@@H]1CO [Compound 132, 5-Amino-3-(3′-deoxy-3′-methylidene-β-D-ribofuranosyl)-3H,6H-thiazolo[4,5-d]pyrimidine-2,7-dione]",> 100,–
"CC(=O)O[C@@H]1[C@@H](F)[C@@H](COC(=O)c2ccccc2)O[C@H]1n1c(=O)sc2c(=O)[nH]c(N)nc21 [Compound 152, (3′R)-5-Amino-3-(2′-O-acetyl-5′-O-benzoyl-3′-deoxy-3′-fluoro-β-D-xylofuranosyl)-3H,6H-thiazolo[4,5-d]pyrimidin-2,7-dione]",11 to 50,–
"Nc1nc2c(sc(=O)n2[C@@H]2O[C@H](CO)[C@H](F)[C@H]2O)c(=O)[nH]1 [Compound 153, (3′R)-5-Amino-3-(3′-deoxy-3′-fluoro-β-D-xylofuranosyl)-3H,6H-thiazolo[4,5-d]pyrimidin-2,7-dione]",> 100,–
"C[C@]1(O)[C@@H](CO)O[C@@H](n2c(=O)sc3c(=O)[nH]c(N)nc32)[C@@H]1O [Compound 141, 5-Amino-3-(3′-(S)-methyl, 2′,3′,5′-tri-hydroxy-β-D-xylofuranosyl)-3H,6H-thiazolo[4,5-d]pyrimidin-2-one]",0 to 10,–
"Nc1nc2c(sc(=O)n2[C@H]2C[C@H](O)[C@@H](CO)O2)c(=O)[nH]1 [Compound 130, 5-Amino-3-(2′-deoxy-β-D-ribofuranosyl)-3H,6H-thiazolo[4,5-d]pyrimidine-2,7-dione]",51 to 100,–
"CC(=O)OC[C@H]1O[C@@H](n2c(=S)sc3c(=O)[nH]c(N)nc32)[C@H](OC(C)=O)[C@H]1OC(C)=O [Compound 34, 5-amino-2,3-dihydro-2-thioxo-3-(2′,3′,5′-tri-O-acetyl-β-D-xylofuranosyl)thiazolo[4,5-d]pyrimidin-7-(6H)-one]",> 100,–
"CCCCCCn1c(=O)sc2c(=O)[nH]c(N)nc21 [Compound 157, 5-Amino-3-hexyl-3H,6H-thiazolo[4,5-d]pyrimidine-2,7-dione]",0 to 10,–
"CC(=O)OC[C@H]1O[C@@H](n2c(=S)sc3c(=O)[nH]c(N)nc32)[C@H](OC(C)=O)[C@@H]1OC(C)=O [Compound 32, 5-amino-2,3-dihydro-2-thioxo-3-(2′,3′,5′-tri-O-acetyl-β-D-ribofuranosyl)thiazolo[4,5-d]pyrimidin-7-(6H)-one]",51 to 100,–
"Nc1nc2c(sc(=S)n2[C@@H]2O[C@H](CO)[C@@H](O)[C@H]2O)c(=O)[nH]1 [Compound 33, 5-amino-2,3-dihydro-2-thioxo-3-β-D-ribofuranosyl-thiazolo[4,5-d]pyrimidin-7(6H)-one]",0 to 10,–
"CC(=O)OCC(OC(C)=O)[C@H]1O[C@@H](n2c(=O)sc3c(=O)[nH]c(N)nc32)[C@H](OC(C)=O)[C@H]1OC(C)=O (stereo partly drawn) [Compound 142, 5-Amino-3-(5′-(1,2-diacetoxy-ethyl), 2′,3′-di-O-acetyl-β-D-glucofuranosyl)-3H,6H-thiazolo[4,5-d]pyrimidin-2-one]",0 to 10,–
"CC(=O)OC[C@@H]1C[C@@H](OC(C)=O)[C@H](n2c(=O)sc3c(=O)[nH]c(N)nc32)O1 [Compound 121, 5-Amino-3-(2′,5′-di-O-acetyl-3′-deoxy-β-D-ribofuranosyl)-3H,6H-thiazolo[4,5-d]pyrimidine-2,7-dione]",> 100,–
Nc1nc2c(sc(=O)n2[C@@H]2O[C@H](CO)[C@H](O)[C@H]2O)c(=O)[nH]1 [Compound 134],> 100,"IFN-α production compared with isatoribine [1]: significantly and substantially more IFN-α production; IFN-α production compared with isatoribine (3× PBMC seeding, 32 μM): dramatically and unexpectedly outperform isatoribine; Difference in amount of IFN-α produced compared with isatoribine (3× PBMC seeding): less clear-cut although visually apparent and statistically significant"
